Laboratory results as given in US20170014352A1, “WATER-DISPERSIBLE AMORPHOUS PARTICLES AND METHOD FOR PREPARING SAME” (The University of Tokyo, priority 2014, published 2017).
Where a name gives a salt, the structure may show the parent alone. Read-outs that look alike come from different tables or passages of the source.

Assays:
[1] = at 25° C.; cited from earlier work
[2] = cited from earlier work; for log P: starting organic compound, Examples 9 and 10; for logP: measured value described in the literature
[3] = particle size (Z-average, hydrodynamic diameter) and PDI by dynamic light scattering (DLS); format: physicochemical
Text: The “particle size” herein means an average particle size, and is defined as a particle size (Z-average) measured by use of a dynamic light scattering (Dynamic Light Scattering: DLS) method. The particle size thus measured is also referred to as “hydrodynamic diameter”.
The “polydispersity index (Polydispersity index: PDI)” herein is an index for evaluating the width of a particle size distribution, and is in the range from 0 to 1. A value of 0 represents an ideal suspension without any size distribution. A distribution having a PDI value of 0.1 or less is referred to as “monodispersity”, and on the other hand, a dispersion having a value between 0.1 and 0.3 is considered to have a narrow size distribution. A dispersion having a PDI of more than 0.5 is considered to be polydisperse. The polydispersity index is calculated from the value obtained by use of a dynamic light scattering (Dynamic Light Scattering: DLS) method.
Measurement by a DLS method was performed by use of a laser light scattering apparatus (Zetasizer Nano ZS manufactured by Malvern instruments Ltd.). A scanning electron microscope (SEM) image was obtained by use of Magellan 4001 manufactured by FEI Company. Powder X-ray diffraction was performed by use of SmartLab manufactured by Rigaku Corporation. FDU-1200 manufactured by EYELA was used for a freeze-dryer.

[4] = Example 6: 100 μM THF solution of compound injected into water, THF distilled off, water dispersion
[5] = Example 7: water injected into THF solution of compound (concentration 100 W), water dispersion

In the case of `Cc1c(OCC(F)(F)F)ccnc1C[S+]([O-])c1nc2ccccc2[nH]1` (stereo not shown) [Lansoprazole], the solubility in water [1] is listed as “less than 0.1 mg/mL” and the “log P” value [2] is listed as 2.58.

For `CC(C)CCC[C@@H](C)[C@H]1CC[C@H]2[C@@H]3CC=C4C[C@@H](O)CC[C@]4(C)[C@H]3CC[C@]12C` [Cholesterol, cholesterol], the PDI [3, 4] was 0.27, the “Particle size (nm)” value [3, 4] was 228 nm and the PDI [3, 5] was 0.02. For the same molecule, the “Particle size (nm)” value [3, 5] was 165 nm, the logP ([2]; Table 1) was 9.61 and the logP ([2]; Table 2) was 9.61.

For `CCCc1nc2c(C)cc(-c3nc4ccccc4n3C)cc2n1Cc1ccc(-c2ccccc2C(=O)O)cc1` [Telmisartan, telmisartan, reference compound], the PDI [3, 5] is given as 0.34, the “Particle size (nm)” value [3, 5] is given as 10 nm and the logP ([2]; Table 2) is given as 6.48.

For `COc1ccc(CC(C)NCC(O)c2ccc(O)c(NC=O)c2)cc1` (stereo not shown) [Formoterol fumarate hydrate], the solubility in water [1] is listed as 170 µg/mL and the “log P” value [2] is listed as 2.0.

With `c1ccc2cc3cc4cc5ccccc5cc4cc3cc2c1` [Pentacene, pentacene] the PDI [3, 5] was 0.02 and the “Particle size (nm)” value [3, 5] was 116 nm.

With `c1cc2ccc3cccc4ccc(c1)c2c34` [Pyrene, pyrene] the PDI [3, 5] was 0.13 and the “Particle size (nm)” value [3, 5] was 120 nm.

For pyrenecarboxylic acid, the PDI [3] was 0.14 and the “Particle size (nm)” value [3] was 76 nm.
